From publication PMC11374673, “Discovery of isoquinoline sulfonamides as allosteric gyrase inhibitors with activity against fluoroquinolone-resistant bacteria” (Nature Chemistry, 2024)
Converted amounts (≈) assume the structure as drawn. “And” between values parts separate entries of the source, which are not always exact repeats. Identical values can stand only once. Like-named read-outs stand apart in the source and are kept apart here.

Experiments:
[1] = tested on: E. coli W3110; experiment: H-89 derivatives rescreen, 50 µM; format: cell-based; settings: Escherichia coli, H-89 derivative rescreen, highest 50 µM
Protocol: From glycerol stocks, E. coli W3110 was cultured on blood agar plates (PB5039A, Thermo Scientific) by overnight (18 ± 2 h) aerobic incubation at 37 °C. A single colony was transferred to tryptic soy broth (TSB, 02-200-500, Scharlab). The cultures were grown to exponential phase (OD600 of 0.5) at 37 °C. The bacterial suspensions were diluted 200-fold in cation-adjusted Mueller–Hinton broth (CAMHB) and 99 µl was added to a library of test compounds (1 µl 10 mM DMSO stock, per well in technical duplicates) in polypropylene 96-well microtitre plates to reach a volume of 100 µl and a final concentration of 100 µM for each test compound and a maximum of 1% DMSO. […] Screening hits were selected from the wells where no visible bacterial growth was observed, as compared with the inoculum controls containing 1% DMSO. The follow-up screen of H-89 derivatives was performed under similar conditions with a final concentration of 50 µM.

[2] = tested on: E. coli W3110; experiment: MIC by broth microdilution; format: cell-based, Escherichia coli; settings: for MIC: broth microdilution, read-out: MIC E. coli W3110
Method in brief: (§1)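 Broth microdilution in CAMHB: twofold compound series inoculated with 100-fold-diluted bacteria from exponential growth (OD600 0.5, 37 °C); kanamycin 50 µg ml^−1 added for Keio collection strains. Overnight incubation, 37 °C, 600 r.p.m. shaking.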

[3] = tested on: K. pneumoniae ATCC 29665; experiment: MIC by broth microdilution; format: cell-based, Klebsiella pneumoniae; settings: read-out: MIC K. pneumoniae ATCC 29665
Method in brief: as §1

[4] = tested on: HEK293T; experiment: Cytotoxicity assay (MTT); format: cell-based, human; settings: for MTT data (raw reading) / MTT data (raw readout): HEK293T; for IC50: Homo sapiens, HEK-293T, 24 h, MTT
Method in brief: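 HEK293T cells, maintained at 37 °C and 7% CO2 in Dulbecco’s modified Eagle medium with GlutaMax, antibiotics and serum, were plated in clear 96-well plates in 100 µl medium containing 1% fetal bovine serum and left 24 h to attach. After 24 h compound exposure, MTT (0.40 mg ml^−1) was added for 2 h. Formazan was dissolved in 100 µl DMSO and absorbance measured at 570 nm. Background-corrected IC50 values came from variable-slope non-linear fits.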

[5] = tested on: HepG2; experiment: Cytotoxicity assay (MTT); format: cell-based, human; settings: for IC50: MTT, 24 h
[6] = Klebsiella pneumoniae, ATCC29665, broth microdilution

## O=S(=O)(NCCNC/C=C/c1ccc(-c2ccccc2)cc1)c1cccc2cnccc12 [Compound 2]
[1]
  MIC: > 50 µM

## O=S(=O)(NCCNC/C=C/c1ccc(-c2ccc3ccccc3c2)cc1)c1cccc2cnccc12 [Compound 3]
[1]
  MIC: > 50 µM

## O=S(=O)(NCCNC/C=C/c1ccc(-c2ccccc2)cc1)c1cccc2ccccc12 [Compound 4]
[1]
  MIC: > 50 µM

## O=S(=O)(NCCNCc1ccc2cc(-c3cccnc3)ccc2c1)c1cccc2cnccc12 [Compound 5]
[1]
  MIC: > 50 µM

## O=S(=O)(NCCNC/C=C/c1ccc(-c2cccnc2)cc1)c1cccc2ccccc12 [Compound 6]
[1]
  MIC: > 50 µM

## O=[N+]([O-])c1ccccc1S(=O)(=O)NCCNC/C=C/c1ccc(-c2cccnc2)cc1 [Compound 7]
[1]
  MIC: > 50 µM

## CN(CCNC/C=C/c1ccc(-c2cccnc2)cc1)S(=O)(=O)c1cccc2cnccc12 [Compound 8]
[1]
  MIC: > 50 µM

## CN(C/C=C/c1ccc(-c2cccnc2)cc1)CCNS(=O)(=O)c1cccc2cnccc12 [Compound 9]
[1]
  MIC: > 50 µM

## CN(CCNCCCc1ccc(-c2cccnc2)cc1)S(=O)(=O)c1cccc2cnccc12 [Compound 10]
[1]
  MIC: > 50 µM

## O=S(=O)(NCCCCCCc1ccc(-c2cccnc2)cc1)c1cccc2cnccc12 [Compound 11]
[1]
  MIC: > 50 µM

## O=C(CCc1ccc(-c2cnc3[nH]ccc3c2)cc1)NCCNS(=O)(=O)c1ccccc1 [Compound 12]
[1]
  MIC: > 50 µM

## O=C(CCc1ccc(-c2cnc3[nH]ccc3c2)cc1)NCCNS(=O)(=O)c1ccc(Cl)cc1 [Compound 13]
[1]
  MIC: > 50 µM

## O=C(CCc1ccc(-c2cnc3[nH]ccc3c2)cc1)NCCNS(=O)(=O)c1ccc(Cl)c(Cl)c1 [Compound 14]
[1]
  MIC: > 50 µM

## Cc1ccc(S(=O)(=O)NCCNC(=O)CCc2ccc(-c3cnc4[nH]ccc4c3)cc2)cc1 [Compound 15]
[1]
  MIC: > 50 µM

## COc1ccc(S(=O)(=O)NCCNC(=O)CCc2ccc(-c3cnc4[nH]ccc4c3)cc2)cc1 [Compound 16]
[1]
  MIC: > 50 µM

## O=S(=O)(NC[C@@H]1CC[C@@H](c2ccc(-c3ccc(F)nc3)cc2)N1)c1cccc2cnccc12 [Compound 98]
[2]; Escherichia coli, W3110, WT
  MIC: > 50 µM
[2]; WT
  MIC: > 50 µM
[2]; relative to parent compound
  antimicrobial activity: completely inactive
[3]; [6]
  MIC: > 50 µM
[3]; broth microdilution
  MIC: > 50 µM
[4]; 0.023 uM, n = 1
  MTT data (raw reading): 1.493 and 1.422 and 1.498
[4]; 0.023 uM, n = 2
  MTT data (raw reading): 1.187 and 1.056 and 1.058
[4]; 0.068 uM, n = 1
  MTT data (raw reading): 1.655 and 1.492 and 1.570
[4]; 0.068 uM, n = 2
  MTT data (raw reading): 1.098 and 1.078 and 1.080
[4]; 0.21 uM, n = 1
  MTT data (raw reading): 1.461 and 1.519 and 1.638
[4]; 0.21 uM, n = 2
  MTT data (raw reading): 1.171 and 1.012 and 1.113
[4]; 0.62 uM, n = 1
  MTT data (raw reading): 1.554 and 1.331 and 1.351
[4]; 0.62 uM, n = 2
  MTT data (raw reading): 1.166 and 1.093 and 0.989
[4]; 1.85 uM, n = 1
  MTT data (raw reading): 1.381 and 1.338 and 1.408
[4]; 1.85 uM, n = 2
  MTT data (raw reading): 1.030 and 0.960 and 0.941
[4]; 5.6 uM, n = 1
  MTT data (raw reading): 1.292 and 1.223 and 1.327
[4]; 5.6 uM, n = 2
  MTT data (raw reading): 0.968 and 1.003 and 0.916
[4]; 16.7 uM, n = 1
  MTT data (raw reading): 1.160 and 1.126 and 1.075
[4]; 16.7 uM, n = 2
  MTT data (raw reading): 0.762 and 0.627 and 0.780
[4]; 50 uM, n = 1
  MTT data (raw reading): 0.797 and 0.734
[4]; 50 uM, n = 2
  MTT data (raw reading): 0.478 and 0.528
[4]
  IC50: 49 µM
[5]; HepG2, 0.023 uM, n = 1
  MTT data (raw reading): 0.370 and 0.364 and 0.367
[5]; HepG2, 0.023 uM, n = 2
  MTT data (raw reading): 0.490 and 0.437 and 0.362
[5]; HepG2, 0.068 uM, n = 1
  MTT data (raw reading): 0.458 and 0.420 and 0.439
[5]; HepG2, 0.068 uM, n = 2
  MTT data (raw reading): 0.379 and 0.325 and 0.398
[5]; HepG2, 0.21 uM, n = 1
  MTT data (raw reading): 0.404 and 0.366 and 0.380
[5]; HepG2, 0.21 uM, n = 2
  MTT data (raw reading): 0.373 and 0.308 and 0.356
[5]; HepG2, 0.62 uM, n = 1
  MTT data (raw reading): 0.411 and 0.337 and 0.367
[5]; HepG2, 0.62 uM, n = 2
  MTT data (raw reading): 0.419 and 0.335 and 0.320
[5]; HepG2, 1.85 uM, n = 1
  MTT data (raw reading): 0.394 and 0.411 and 0.409
[5]; HepG2, 1.85 uM, n = 2
  MTT data (raw reading): 0.343 and 0.331 and 0.334
[5]; HepG2, 5.6 uM, n = 1
  MTT data (raw reading): 0.374 and 0.346 and 0.373
[5]; HepG2, 5.6 uM, n = 2
  MTT data (raw reading): 0.307 and 0.313 and 0.306
[5]; HepG2, 16.7 uM, n = 1
  MTT data (raw reading): 0.262 and 0.289 and 0.283
[5]; HepG2, 16.7 uM, n = 2
  MTT data (raw reading): 0.250 and 0.271 and 0.247
[5]; HepG2, 50 uM, n = 1
  MTT data (raw reading): 0.250 and 0.255 and 0.242
[5]; HepG2, 50 uM, n = 2
  MTT data (raw reading): 0.199 and 0.179 and 0.169
[5]; Homo sapiens, HepG2, 24 h
  IC50: 66 µM
[5]
  IC50: > 50 µM

## O=S(=O)(NC[C@@H]1CC[C@H](c2ccc(-c3ccccc3)cc2)N1)c1cccc2cnccc12 [Compound 100]
[2]; Escherichia coli, W3110, WT
  MIC: 1.6 µM (≈ 0.71 µg/mL)
[3]; [6]
  MIC: 6.25 µM (≈ 2.77 µg/mL)
[4]; HEK293T and HepG2
  cytotoxicity: substantial cytotoxicity
[4]; 0.023 uM, experiment n = 1, technical triplicates
  MTT data (raw readout): 1.435 and 1.455 and 1.506
[4]; 0.023 uM, experiment n = 2, technical triplicates
  MTT data (raw readout): 1.022 and 0.970 and 0.963
[4]; 0.068 uM, experiment n = 1, technical triplicates
  MTT data (raw readout): 1.260 and 1.443 and 1.546
[4]; 0.068 uM, experiment n = 2, technical triplicates
  MTT data (raw readout): 1.032 and 0.974 and 0.962
[4]; 0.21 uM, experiment n = 1, technical triplicates
  MTT data (raw readout): 1.440 and 1.428 and 1.427
[4]; 0.21 uM, experiment n = 2, technical triplicates
  MTT data (raw readout): 1.023 and 0.943 and 0.880
[4]; 0.62 uM, experiment n = 1, technical triplicates
  MTT data (raw readout): 1.304 and 1.414 and 1.203
[4]; 0.62 uM, experiment n = 2, technical triplicates
  MTT data (raw readout): 0.795 and 0.796 and 0.802
[4]; 1.85 uM, experiment n = 1, technical triplicates
  MTT data (raw readout): 0.892 and 0.934 and 1.008
[4]; 1.85 uM, experiment n = 2, technical triplicates
  MTT data (raw readout): 0.653 and 0.625 and 0.564
[4]; 5.6 uM, experiment n = 1, technical triplicates
  MTT data (raw readout): 0.787 and 0.844 and 0.842
[4]; 5.6 uM, experiment n = 2, technical triplicates
  MTT data (raw readout): 0.528 and 0.470 and 0.496
[4]; 16.7 uM, experiment n = 1, technical triplicates
  MTT data (raw readout): 0.654 and 0.620 and 0.622
[4]; 16.7 uM, experiment n = 2, technical triplicates
  MTT data (raw readout): 0.433 and 0.475 and 0.464
[4]; 50 uM, experiment n = 1, technical triplicates
  MTT data (raw readout): 0.419 and 0.461 and 0.443
[4]; 50 uM, experiment n = 2, technical triplicates
  MTT data (raw readout): 0.271 and 0.254 and 0.252
[4]
  IC50: 8.1 µM
[5]; HepG2, 0.023 uM, experiment n = 1, technical triplicates
  MTT data (raw readout): 0.333 and 0.336 and 0.361
[5]; HepG2, 0.023 uM, experiment n = 2, technical triplicates
  MTT data (raw readout): 0.317 and 0.327 and 0.342
[5]; HepG2, 0.068 uM, experiment n = 1, technical triplicates
  MTT data (raw readout): 0.444 and 0.395 and 0.393
[5]; HepG2, 0.068 uM, experiment n = 2, technical triplicates
  MTT data (raw readout): 0.444 and 0.405 and 0.418
[5]; HepG2, 0.21 uM, experiment n = 1, technical triplicates
  MTT data (raw readout): 0.321 and 0.295 and 0.307
[5]; HepG2, 0.21 uM, experiment n = 2, technical triplicates
  MTT data (raw readout): 0.315 and 0.286 and 0.293
[5]; HepG2, 0.62 uM, experiment n = 1, technical triplicates
  MTT data (raw readout): 0.316 and 0.335 and 0.382
[5]; HepG2, 0.62 uM, experiment n = 2, technical triplicates
  MTT data (raw readout): 0.313 and 0.317 and 0.366
[5]; HepG2, 1.85 uM, experiment n = 1, technical triplicates
  MTT data (raw readout): 0.377 and 0.346 and 0.368
[5]; HepG2, 1.85 uM, experiment n = 2, technical triplicates
  MTT data (raw readout): 0.307 and 0.264 and 0.317
[5]; HepG2, 5.6 uM, experiment n = 1, technical triplicates
  MTT data (raw readout): 0.341 and 0.333 and 0.345
[5]; HepG2, 5.6 uM, experiment n = 2, technical triplicates
  MTT data (raw readout): 0.271 and 0.300 and 0.310
[5]; HepG2, 16.7 uM, experiment n = 1, technical triplicates
  MTT data (raw readout): 0.345 and 0.363 and 0.356
[5]; HepG2, 16.7 uM, experiment n = 2, technical triplicates
  MTT data (raw readout): 0.277 and 0.308 and 0.357
[5]; HepG2, 50 uM, experiment n = 1, technical triplicates
  MTT data (raw readout): 0.236 and 0.222 and 0.339
[5]; HepG2, 50 uM, experiment n = 2, technical triplicates
  MTT data (raw readout): 0.109 and 0.122 and 0.118
[5]; Homo sapiens, HepG2, 24 h
  IC50: 37 µM
